How the values were obtained:
Type in all cases: cell-based, human
PP2A = PP2A phosphatase assay on RL95-2 whole cell lysates; settings: RL95-2 cells, vs control (non-targeting)
Text: Because PME-1 is a known inhibitor of PP2A, we confirmed in this study that depletion of PME-1 by siRNA led to an increase in PP2A activity in cells. To do so, we treated RL95-2 cells with either non-targeting siRNA (Control) or siRNA targeted against PPME1 (e.g., SEQ ID NO: 5 and SEQ ID NO: 6). PP2A activity was monitored using a phosphatase assay (R&D Systems Duo IC Set phosphatase assay kit). In the phosphatase assay, we used […] of whole cell extract and followed the manufacturer's recommendations.
Whole cell lysates were used with the DuoSet IC PP2A Phosphatase Assay Kit (R&D Systems). Procedure was carried out as per kit instructions with 500 μg protein and the absorbance was measured at 620 nm. The assay was repeated twice with similar results.

PPME1 mRNA = experiment: qRT-PCR of PME-1 (PPME1) expression in RL95-2 cells; settings: RL95-2 cells stably expressing shRNA, vs shSCR
Procedure: (§1) Using RL95-2 endometrial cancer cells, we overexpressed PME-1 (FIG. 21A) or depleted PME-1 with shRNA targeted to PME-1 (SEQ ID NO: 2) (FIG. 21B) and confirmed that PME-1 was appropriately expressed.
(§2) Total RNA was extracted with Qiagen RNAEasy kit from RL95-2 cells. cDNA was synthesized using 500 ng-1 μg of RNA and SuperScript VILO c-DNA mix (Life Technologies). Taqman probes and PCR-mix were purchased from Life Technologies. All samples were run in triplicates. Results are representative of three independent experiments in which genes of interest were normalized to the house-keeping gene, 18S or GAPDH, where fold-change was calculated using the ddCt method.

PME-1 = experiment: Western blot of PME-1 protein in RL95-2 cells; settings: GAPDH loading control
Procedure: We prepared RL95-2 cell lines expressing empty vector (control), over-expressing PME-1 (+PME-1), or expressing shRNA against PPME1, the gene that codes for PME-1 protein (−PME-1). Using these cells, we confirmed the appropriate level of PME-1 via real-time RT-PCR (data not shown) and Western blot analysis (FIG. 8). GAPDH was used as a loading control.
We also prepared two different shRNAs targeted against PME-1.
15 μg of protein was used for western analysis. PME-1 antibody (Santa Cruz) and COXIV (Cell Signaling Technologies) were used for detection of proteins and the blots were developed using chemiluminescence (Pierce ECL Western Blotting Substrate—Thermo Scientific) on the GE ImageQuant LAS 4000. For analysis of Akt, ERK, and β-catenin signaling in tissue culture, western analyses were completed as follows. RL95-2 cells stably infected with lentivirus expressing constructs were selected with puromycin (Invivogen). The cells were incubated with either 50 μM Akt inhibitor (LY 294002, Cell Signaling Technologies) or 40 μM ERK inhibitor (V0126, Cell Signaling Technologies) for 1-2 hours at 37° C. 1.5× Laemelli buffer (0.5 M Tris pH6.8, […], 10% sodium dodecyl sulfate, 100 mM EDTA) was used to prepare cell lysates. 20 μg of protein was used for western analysis. […]

RL95-2 cells [1] = experiment: Foci formation assay, RL95-2 cells; settings: RL95-2 cells expressing shRNA, compared to control cells
Procedure: A foci forming assay was used to monitor cell growth. Equal amounts of tumor cells were plated and they were allowed to grow for a determined period of time (see Materials and Methods section for details). The foci that were formed were then stained with the crystal violet dye. Cells were washed 3 times with PBS prior to visualization. Numbers of foci were counted and results were averaged among different experiments.
To determine if the loss of active PME-1 accounted for the observed decrease in foci formation, we first treated RL95-2 cells with siRNA against the 3′-UTR of PPME1 (SEQ ID NO: 5 and SEQ ID NO: 6) to decrease endogenous levels of PME-1. […] The S156A PME-1 mutant is not capable of de methylaing its target, PP2A.
1,000 cells were plated in a six well tissue culture dish in selection media (to include 5 μg/ml puromycin) (InvivoGen). Cells were allowed to adhere and grow in a 5% CO2, 37° C. incubator for 10 to 14 days. Media was replaced every fourth day. Cells were stained with 1% crystal violet (Sigma Aldrich) for five minutes and rinsed with PBS. Colonies were counted and data is presented as the percentage of change compared to the control. All Experiments were repeated at least three times.

RL95-2 cells [2] = experiment: BrDU incorporation assay, RL95-2 cells; settings: RL95-2, compared to scrambled shRNA control set to 100%
Procedure: To confirm our foci formation data that altering PME-1 levels in endometrial cancer cells affect their rate of cell proliferation, we conducted a BrDU incorporation assay. BrDU is incorporated into newly synthesized DNA and can be detected with antibodies; thus, increased BrDU incorporation correlates with an increased level of proliferation.
The BrDU Incorporation assay was completed with RL95-2 cell lines in media supplemented with 2.5 μg/ml puromycin. Cells were plated at 0.5×10^4 cells per well into a 96 well dish with 0% FBS and allowed to settle for 24 hours. The assay was completed as per kit instructions (Roche, Cell Proliferation ELISA, BrdU colorimetric cat. #11647229001). Briefly, 10 uM BrdU was added to the cells, 24 hours later cells were fixed and denatured with FixDenat from the kit and allowed to incubate with anti-BrdU antibody for up to two hours. Following the incubation and addition of the kit substrate, absorbances were read using FluoStar Galaxy.

DcR2 = experiment: Senescence assay: Western blot for DcR2 in RL95-2 cells; settings: RL95-2 cell lysates
Procedure: We next analyzed cell lysates taken from RL95-2 cells that expressed either empty vector (Control), overexpressed PME-1 (+PME-1) or expressed shRNA against PME-1 (−PME-1) for DcR2 protein.
15 μg of protein was used for western analysis. PME-1 antibody (Santa Cruz) and COXIV (Cell Signaling Technologies) were used for detection of proteins and the blots were developed using chemiluminescence (Pierce ECL Western Blotting Substrate—Thermo Scientific) on the GE ImageQuant LAS 4000. For analysis of Akt, ERK, and β-catenin signaling in tissue culture, western analyses were completed as follows. RL95-2 cells stably infected with lentivirus expressing constructs were selected with puromycin (Invivogen). The cells were incubated with either 50 μM Akt inhibitor (LY 294002, Cell Signaling Technologies) or 40 μM ERK inhibitor (V0126, Cell Signaling Technologies) for 1-2 hours at 37° C. 1.5× Laemelli buffer (0.5 M Tris pH6.8, […], 10% sodium dodecyl sulfate, 100 mM EDTA) was used to prepare cell lysates. 20 μg of protein was used for western analysis. Primary antibodies used were: P-Akt (Ser473), P-Akt (Thr308), pan-Akt, P-ERK (Thr202/204), total ERK (Cell Signaling Technologies), PME-1 (Santa Cruz), phospho-β-catenin (Ser45, Cell Signaling Technologies), phospho-β-catenin (Ser33/37/Thr41, Cell Signaling Technologies), β-catenin (Abcam), DcR2 (Abcam), and GAPDH (Abcam). […]

WNT3 = experiment: qRT-PCR of WNT3 expression in RL95-2 cells; settings: RL95-2, qRT-PCR normalized to 18S
Procedure: as §1, §2

WNT3A = experiment: qRT-PCR of WNT3A expression in RL95-2 cells; settings: RL95-2, qRT-PCR normalized to 18S
Procedure: as §1, §2

## shRNA (SEQ ID NO: 2): lentiviral shRNA against PPME1, target sequence SEQ ID NO: 2 GCAGCGATTATTAGTAGAGTT, bp 289-309; hairpin SEQ ID NO: 8 (CCGGGCAGCGATTATTAGTAGAGTTCTCGAGAACTCTACTAATAATCGCTGCTTTTT; listed as Homo sapiens)
PP2A
  increase in PP2A phosphatase activity: 30 fold
PPME1 mRNA
  PME-1 knocked down (qRT-PCR, normalized to 18S): > 50%
PME-1
  PME-1 levels by Western blot analysis: significantly decreased PME-1 levels
RL95-2 cells [1]
  decrease in foci: 75%
RL95-2 cells [2]
  decrease in BrDU incorporation: 40%
DcR2
  senescent marker protein DcR2 (Western): increase in the senescent marker protein, DcR2
WNT3
  WNT3 expression: significantly decreased
WNT3A
  WNT3A expression: significantly decreased

Source: patent US9663789B2, “PME-1 as a biomarker to predict and diagnose endometrial and breast cancer and gene silencing of PME-1 to inhibit epithelial to mesenchymal transition” (MEDICAL DIAGNOSTIC LABORATORIES, LLC, priority 2013, dated 2017)
